Laboratory results taken from US8951988B2, “Azidothymidine quinoline conjugated compound, preparation method therefor and application thereof in anti-hepatoma therapy” (Huazhong University of Science and Technology, priority 2012, dated 2015).
Several values for one entry are separate records, joined by “and”; a condition that tells them apart may be missing. Equal entries are not always repeated.

Legend:
[1] = test system: normal human liver cells HL-7702; assay: MTT cell viability assay, HL-7702; settings: MTT after 72 hours
Description: (§1) Cell culture: cancer cell lines HepG2 and Hep3B are obtained from ATCC (VA, USA), Human liver cells HL-7702 and murine liver cancer cells H22 are obtained from Shanghai Institute of Life Science Cell Culture Center (Shanghai, China). All the cells are maintained in high glucose DMEM or RPMI-1640 medium (Invitrogen, GA, USA) supplemented with 10% heat-inactivated fetal bovine serum (FBS), 25 mM HEPES, 2 mM L-glutamine, 0.1 mM nonessential amino acids, 1.0 mM sodium pyruvate, 50 U/mL penicillin, and 50 ug/ml streptomycin at 37° C. and 5% CO2.
(§2) Methods of cell viability assay: liver cells are seeded on 96-well plates, AZT-QX, Zidovudine, quinoline piperazine derivatives and doxorubicin are added in respectively, the concentration thereof are from 1 nM to […]. After 72 hours, an MTT assay is carried out to determine the cell viability [See method in: Zhou, et al. Chem. Res. Toxicol. 2008, 21, 732-738.].
(§3) Selective biological activity of AZT-QX is assessed using cell viability assays MTT on human liver carcinoma cells with hepatitis B Hep3B, hepatoblastoma cell line HepG2 and normal human liver cells HL-7702 (FIG. 3).
(§4) FIG. 3 illustrates determined cell viability of Hep3B hepatoma cells with hepatitis B, a HepG2 hepatoblastoma cell line and HL-7702 normal […] treated with AZT-QX (FIG. 3a), doxorubicin (FIG. 3b), Pip-QX (FIG. 3c), and Zidovudine (FIG. 3d).

[2] = test system: hepatoblastoma cell line HepG2; assay: MTT cell viability assay, HepG2; type: cell-based, human; settings: MTT after 72 hours
Description: as §1, §2, §3, §4

[3] = test system: hepatoma cells with hepatitis B; assay: anti-BrdU fluorescence assay of nucleic acid synthesis, hepatoma cells; type: cell-based
Source text: (§5) The anti-BrdU fluorescence assay is used to determine the nucleic acid synthesis in cells (FIG. 4).
(§6) FIG. 4 illustrates fluorescence images of an anti-BrdU assay of nucleic acid synthesis in cells. As shown in the figure, the green fluorescence illustrates the nucleic acid synthesis in cells, and the blue fluorescence illustrates the nuclear staining.

[4] = test system: human liver carcinoma cells with hepatitis B Hep3B; assay: MTT cell viability assay, Hep3B; type: cell-based
Description: as §1, §2, §3, §4

[5] = body weight of mice in the H22 liver tumor model; settings: individual mice, 50 μM 100 μl on day 1 and day 7, in g (unit assumed)
Source text: Animal groups and drug administration: mice are divided into 3 groups once tumors reach an average size of 8.8×8.8 mm.

H22 liver cancer cells = assay: subcutaneous H22 liver tumor model in mice, tumor size and volume; type: in vivo, BALB/c mice; settings: for volume: individual mice, 50 μM 100 μl on day 1 and day 7
Description: The liver cancer tumor models are established by subcutaneously injecting H22 hepatoma cells. […] The further statistical analysis (see FIG. 6) confirms that as compared with the other two, AZT-QX has greater effectiveness p<0.01, and at a low dosage (0.13 mg/kg at a time, twice).
FIG. 6 illustrates the average growth of tumors in mice after administration and tumors in mice after 12 days, in which FIG. 6a is a figure of the average growth of tumors in mice; FIG. 6b is contrast of tumors in mice 12 days after different drug treatments. The control is a blank contrast, AZT is Zidovudine, AZT-QX is application of the compound of the invention.

[6] = test system: normal liver cells HL-7702; assay: anti-BrdU fluorescence assay of nucleic acid synthesis, normal liver cells; type: cell-based, human
Source text: as §5, §6

Row | Compound | toxicity to normal liver cells HL-7702 (in words) [1] | toxicity to / killing of HepG2 cells (in words) [2] | nucleic acid synthesis in hepatoma cells (green fluorescence) [3] | toxicity to / killing of Hep3B cells (in words) ([4]; MTT after 72 hours) | BW ([5]; Day 1) | BW ([5]; Day 2) | BW ([5]; Day 3) | BW ([5]; Day 4) | BW ([5]; Day 5) | BW ([5]; Day 6) | BW ([5]; Day 7) | BW ([5]; Day 8) | BW ([5]; Day 9) | BW ([5]; Day 10) | BW ([5]; Day 11) | BW ([5]; Day 12) | volume (H22 liver cancer cells; Day 1, in mm³ (unit assumed)) | volume (H22 liver cancer cells; Day 3, in mm³ (unit assumed)) | volume (H22 liver cancer cells; Day 4, in mm³ (unit assumed)) | volume (H22 liver cancer cells; Day 5, in mm³ (unit assumed)) | also measured
1 | Cc1cn([C@H]2C[C@H](N=[N+]=[N-])[C@@H](CO)O2)c(=O)[nH]c1=O [Zidovudine] | no significant toxicity | no significant toxicity | no effect in inhibiting nucleic acid synthesis | no significant toxicity | 26.9 and 29.9 and 31.9 | 26.8 and 31.5 and 32 | 26.8 and 31.5 and 31.8 | 27.2 and 31.4 and 33 | 27 and 31.3 and 32.7 | 27.4 and 31.3 and 33.8 | 26.9 and 31.5 and 33.5 | 26.6 and 32.7 and 34.1 | 27 and 33.3 and 34.2 | 27 and 34.5 and 34.4 | 27.7 and 36.6 and 35.1 | 28.8 and 37.4 and 35.9 | 220.5 and 364.5 and 405 | 320 and 665.5 and 600 | 650 and 726 and 786.5 | 486 and 936 and 786.5 | volume (H22 liver cancer cells; Day 2, in mm³ (unit assumed)): 245 and 550 and 405; volume (H22 liver cancer cells; Day 6, in mm³ (unit assumed)): 1028.5 and 1183 and 1470; volume (H22 liver cancer cells; Day 7, in mm³ (unit assumed)): 1149.5 and 1687.5 and 1568; volume (H22 liver cancer cells; Day 8, in mm³ (unit assumed)): 1368 and 3402 and 2560; volume (H22 liver cancer cells; Day 9, in mm³ (unit assumed)): 1368 and 3610 and 3240; volume (H22 liver cancer cells; Day 10, in mm³ (unit assumed)): 1368 and 3790.5 and 4851; volume (H22 liver cancer cells; Day 11, in mm³ (unit assumed)): 1440 and 4400 and 5071.5; volume (H22 liver cancer cells; Day 12, in mm³ (unit assumed)): 1960 and 5292 and 4851
2 | COc1cccc2c1C(=O)c1c(O)c3c(c(O)c1C2=O)C[C@@](O)(C(=O)CO)C[C@@H]3O[C@H]1C[C@H](N)[C@H](O)[C@H](C)O1 [doxorubicin] | more severe than to hepatoma cells |  |  |  |  |  |  |  |  |  |  |  |  |  |  |  |  |  |  |  | 
3 | Cc1cn([C@H]2C[C@H](n3cc(CNC(=O)CCCCCOc4ccc5c(c4)-c4nc6ccccc6nc4[C@@H]4C(C)(C)CCC[C@]54C)nn3)[C@@H](CO)O2)c(=O)[nH]c1=O [AZT-QX, N-((1-(2-(hydroxymethyl)-5-(5-methyl-2,4-dioxo-3,4-dihydro-pyrimidin-1(2H)-yl)-tetrahydrofuran-3-yl)-1H-1,2,3-triazol-4-yl)methyl)-6-(4b,8,8-trimethyl-4-b,5,6,7,8,8a-hexahydrodibenzo[a,c]phenazin-2-yloxy)hexanamide] |  |  | effectively inhibits green fluorescence in hepatoma cells |  | 30.7 and 35.4 and 26.9 | 31.7 and 36.3 and 27.7 | 32 and 36 and 27.6 | 32.5 and 37.1 and 28 | 32.4 and 32.9 and 28.2 | 32.2 and 37 and 28.1 | 32 and 36.3 and 27.9 | 33.2 and 36.6 and 28.7 | 33.5 and 36.6 and 28.8 | 34.1 and 36.7 and 28.7 | 34.5 and 36.8 and 29 | 35.8 and 37.9 and 29.5 | 256 and 288 and 500 | 500 and 405 and 288 | 500 and 364.5 and 405 | 665.5 and 364.5 and 445.5 | toxicity to human normal liver cells HL-7702 (in words) ([1]; at 200 μM): no significant toxicity; activity in combination with methotrexate ([4]; Hep3B cells, methotrexate added): additive effect; Hep3B cells killed ([4]; at 20 μM, MTT after 72 hours): 80%; activity after selective inhibition of thymidine kinase by siRNA ([4]; hepatoma cells with hepatitis B, thymidine kinase siRNA): decreased; nucleic acid synthesis in normal liver cells HL-7702 [6]: does not affect the nucleic acid synthesis; volume (H22 liver cancer cells; Day 2): 364.5 and 288 (2×); volume (H22 liver cancer cells; Day 6, in mm³ (unit assumed)): 936 and 405 and 550; volume (H22 liver cancer cells; Day 7, in mm³ (unit assumed)): 907.5 and 500 and 550; volume (H22 liver cancer cells; Day 8, in mm³ (unit assumed)): 1080 and 500 and 600; volume (H22 liver cancer cells; Day 9, in mm³ (unit assumed)): 1080 and 665.5 and 666; volume (H22 liver cancer cells; Day 10, in mm³ (unit assumed)): 1080 and 786.5 and 726; volume (H22 liver cancer cells; Day 11, in mm³ (unit assumed)): 1267.5 and 847 and 726; volume (H22 liver cancer cells; Day 12, in mm³ (unit assumed)): 1267.5 and 1008 and 726; average tumor growth after 12 days (in words) (H22 liver cancer cells; injected intratumorally on day 1 and day 7, 100 μL): inhibits tumor growth
4 | CN1CCN(C(=O)Oc2ccc3c(c2)-c2nc4ccccc4nc2[C@@H]2C(C)(C)CCC[C@]32C)CC1 [pip-QX] | killed all the liver cell lines non-selectively | killed all the liver cell lines non-selectively | effect similar to AZT-QX | killed all the liver cell lines non-selectively |  |  |  |  |  |  |  |  |  |  |  |  |  |  |  |  | 
